The source made the active and inactive calls.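 How the source made its calls: active means parasite count per well reduced by over 3 SD from the mean, with host cell number above 80% of untreated; inactive means the rest.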
Test system: L. donovani amastigotes in THP-1 macrophages, DAPI imaging, 72 h
Test: antileishmanial activity in infected macrophages – imaging, THP-1 host macrophages, single concentration (AID 977614);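 further: signal is the parasite per host cell ratio from DAPI stained kinetoplasts and nuclei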

SMILES	AC50
CCCNC(=O)N1[C@H](CNC(=O)c2cccc(F)c2)[C@@H](c2ccccc2)[C@@H]1CO	> 10 µM (inactive)
C[C@@H]1CN([C@H](C)CO)C(=O)CCCn2cc(nn2)CO[C@H]1CN(C)C(=O)NC1CCCCC1	> 10 µM (inactive)
C[C@@H]1CN([C@@H](C)CO)C(=O)CCCn2nncc2CO[C@@H]1CN(C)Cc1cccc2c1OCCCO2	> 10 µM (inactive)
C[C@@H]1CN([C@H](C)CO)C(=O)CCCn2nncc2CO[C@H]1CN(C)C(=O)Nc1ccc2c(c1)OCCO2	> 10 µM (inactive)
C[C@H]1CN([C@@H](C)CO)C(=O)CCCn2nncc2CO[C@@H]1CN(C)C(=O)c1ccc(N2CCN(C)CC2)cc1	> 10 µM (inactive)
C/C=C/c1ccc([C@@H]2[C@@H](CN(C)C(C)=O)N(C(=O)NC(C)C)[C@H]2CO)cc1	> 10 µM (inactive)
O=C(CC1CC1)N1[C@H](CO)[C@@H]2c3ccccc3N(S(=O)(=O)c3ccccc3F)C[C@@H]21	> 10 µM (inactive)
C/C=C/c1ccc([C@H]2[C@@H](CN(C)C(C)=O)N(C(=O)NC(C)C)[C@H]2CO)cc1	> 10 µM (inactive)
Cc1noc(C)c1S(=O)(=O)N(C)C[C@H]1OCc2cnnn2CCCC(=O)N([C@H](C)CO)C[C@@H]1C	> 10 µM (inactive)
COc1ccc(NC(=O)N2C[C@@H]3[C@H](c4ccccc42)[C@@H](CO)N3Cc2ccccn2)cc1	> 10 µM (inactive)
CN1[C@H](CO)[C@H]2c3ccccc3NC[C@H]21	> 10 µM (inactive)
CC(=O)N1[C@H](CO)[C@H](c2ccc(-c3ccccc3F)cc2)[C@@H]1CNC(C)C	> 10 µM (inactive)
Cc1noc(C)c1NC(=O)N(C)C[C@H]1OCc2cn(nn2)CCCC(=O)N([C@@H](C)CO)C[C@H]1C	> 10 µM (inactive)
C[C@@H]1CN([C@@H](C)CO)C(=O)CCCn2nncc2CO[C@H]1CN(C)Cc1ccc2cccnc2c1	> 10 µM (inactive)
C[C@@H]1CN([C@@H](C)CO)C(=O)CCCn2nncc2CO[C@@H]1CN(C)C(=O)Nc1ccccc1C(F)(F)F	> 10 µM (inactive)
O=C(NC[C@@H]1N[C@@H](CO)[C@H]1c1ccccc1)c1ccccc1F	> 10 µM (inactive)
C/C=C/c1ccc([C@H]2[C@@H](CO)N(C(=O)CC)[C@H]2CN(C)Cc2cncnc2)cc1	> 10 µM (inactive)
CC(=O)N1[C@H](CO)[C@@H](c2ccccc2)[C@@H]1CN(CC(C)C)C(=O)c1ccccn1	> 10 µM (inactive)
O=C(Cc1ccccc1)N1C[C@@H]2[C@H](c3ccccc31)[C@H](CO)N2S(=O)(=O)c1ccccc1	> 10 µM (inactive)
C[C@H]1CN([C@@H](C)CO)C(=O)CCCn2nncc2CO[C@H]1CN(C)C(=O)Nc1ccc2c(c1)OCCO2	> 10 µM (inactive)
O=C(c1ccc2c(c1)OCO2)N1C[C@@H]2[C@H](c3ccccc31)[C@H](CO)N2C(=O)CC1CC1	> 10 µM (inactive)
CCC(=O)N1[C@H](CO)[C@H]2c3ccccc3N(C(=O)c3cnccn3)C[C@H]21	> 10 µM (inactive)
O=C(c1cccc(F)c1)N1C[C@@H]2[C@H](c3ccccc31)[C@H](CO)N2Cc1cocn1	> 10 µM (inactive)
C[C@@H]1CN([C@H](C)CO)C(=O)CCCn2cc(nn2)CO[C@@H]1CN(C)C(=O)CCC(F)(F)F	> 10 µM (inactive)
O=C(CN1CCOCC1)N1[C@H](CO)[C@@H]2c3ccccc3NC[C@@H]21	> 10 µM (inactive)
CCN(C[C@@H]1[C@H](c2ccccc2)[C@@H](CO)N1C(=O)COC)S(C)(=O)=O	> 10 µM (inactive)

SMILES	AC50
CC(=O)N1[C@@H](CO)[C@@H](c2ccccc2)[C@@H]1CN(C)S(=O)(=O)c1ccccc1	> 10 µM (inactive)
CCN(C[C@@H]1[C@@H](c2ccccc2)[C@@H](CO)N1C(=O)COC)S(C)(=O)=O	> 10 µM (inactive)
C[C@@H]1CN([C@@H](C)CO)C(=O)CCCn2nncc2CO[C@@H]1CN(C)Cc1cccc(C(F)(F)F)c1	> 10 µM (inactive)
O=C(Nc1ccc(F)cc1)N1C[C@@H]2[C@H](c3ccccc31)[C@H](CO)N2C(=O)c1ccncc1	> 10 µM (inactive)
COc1ccccc1NC(=O)N1C[C@H]2[C@@H](c3ccccc31)[C@H](CO)N2CC1CCOCC1	> 10 µM (inactive)
CC(=O)NC[C@H]1[C@@H](c2ccc(-c3cccnc3)cc2)[C@@H](CO)N1C(=O)CC1CC1	> 10 µM (inactive)
CCCNC(=O)N1C[C@H]2[C@@H](c3ccccc31)[C@H](CO)N2Cc1cccc(OC)c1	> 10 µM (inactive)
C[C@H](CO)N1C[C@H](C)[C@@H](CN(C)S(=O)(=O)c2ccc(-n3cccn3)cc2)OCc2cn(nn2)CCCC1=O	> 10 µM (inactive)
CCC(=O)N1[C@H](CO)[C@@H]2c3ccccc3N(C(=O)c3cnccn3)C[C@@H]21	> 10 µM (inactive)
O=C(C1CC1)N1C[C@@H]2[C@H](c3ccccc31)[C@H](CO)N2C(=O)c1ccccc1	> 10 µM (inactive)
CN(C[C@H]1[C@@H](c2ccccc2)[C@@H](CO)N1Cc1ccccn1)S(C)(=O)=O	> 10 µM (inactive)
CC(=O)N1[C@H](CO)[C@H]2c3ccccc3N(S(=O)(=O)c3ccccc3C)C[C@H]21	> 10 µM (inactive)
O=C(Nc1ccc(Cl)cc1)N1C[C@H]2[C@@H](c3ccccc31)[C@H](CO)N2CC1CCCCC1	> 10 µM (inactive)
CCCNC(=O)N1[C@@H]2CN(C(=O)c3ccncc3)c3ccccc3[C@@H]2[C@@H]1CO	> 10 µM (inactive)
C[C@H]1CN([C@@H](C)CO)C(=O)CCCn2nncc2CO[C@@H]1CN(C)Cc1ccc(C(=O)Nc2ccccc2N)cc1	> 10 µM (inactive)
O=C(NC[C@H]1[C@@H](c2ccccc2)[C@@H](CO)N1C(=O)C1CCC1)NC1CCCC1	> 10 µM (inactive)
C[C@@H]1CN([C@@H](C)CO)C(=O)CCCn2nncc2CO[C@H]1CN(C)C(=O)Nc1ccnc(N2CCOCC2)c1	> 10 µM (inactive)
COc1ccccc1NC(=O)N1C[C@H]2[C@@H](c3ccccc31)[C@H](CO)N2C(=O)C1CCCC1	> 10 µM (inactive)
C[C@H](CO)N1C[C@H](C)[C@H](CN(C)Cc2ccccc2)OCc2cn(nn2)CCCC1=O	> 10 µM (inactive)
COc1ccc(C(=O)N2C[C@H]3[C@@H](c4ccccc42)[C@H](CO)N3C(=O)Cc2ccccn2)cc1	> 10 µM (inactive)
O=C(C1CCC1)N1C[C@@H]2[C@H](c3ccccc31)[C@@H](CO)N2C(=O)Nc1cccc(F)c1	> 10 µM (inactive)
O=C(NC[C@@H]1N[C@@H](CO)[C@@H]1c1ccccc1)c1ccccc1F	> 10 µM (inactive)
CCCNC(=O)N1[C@H](CNC(=O)c2cccc(F)c2)[C@H](c2ccccc2)[C@@H]1CO	> 10 µM (inactive)
CN(C[C@H]1N[C@H](CO)[C@@H]1c1ccc(-c2cccnc2)cc1)C(=O)NC1CCCC1	> 10 µM (inactive)
C[C@H](CO)N1C[C@H](C)[C@H](CN(C)C(=O)Nc2cccc3ccccc23)OCc2cn(nn2)CCCC1=O	> 10 µM (inactive)
COCC(=O)N1[C@@H]2CNc3ccccc3[C@@H]2[C@@H]1CO	> 10 µM (inactive)

SMILES	AC50
C[C@@H]1CN([C@H](C)CO)C(=O)CCCn2nncc2CO[C@H]1CN(C)S(=O)(=O)c1ccc2c(c1)OCCCO2	> 10 µM (inactive)
CCCNC[C@@H]1[C@@H](c2ccc(C3=CCCCC3)cc2)[C@@H](CO)N1C(=O)C1CCC1	> 10 µM (inactive)
COCC(=O)NC[C@H]1[C@H](c2ccccc2)[C@H](CO)N1C(=O)c1ccccc1	> 10 µM (inactive)
CNC[C@@H]1OCc2cnnn2CCCC(=O)N([C@@H](C)CO)C[C@H]1C	> 10 µM (inactive)
O=C(Nc1cccc(Cl)c1)N1C[C@@H]2[C@H](c3ccccc31)[C@@H](CO)N2Cc1cccnc1	> 10 µM (inactive)
COCC(=O)N(C[C@H]1N[C@H](CO)[C@@H]1c1ccc(C2=CCCC2)cc1)C1CCCC1	> 10 µM (inactive)
O=C(c1ccc2c(c1)OCO2)N1C[C@H]2[C@@H](c3ccccc31)[C@@H](CO)N2C(=O)CC1CC1	> 10 µM (inactive)
CCN(C[C@H]1[C@H](c2ccccc2)[C@@H](CO)N1C(=O)COC)S(C)(=O)=O	> 10 µM (inactive)
OC[C@H]1[C@H]2c3ccccc3NC[C@H]2N1CC1CCOCC1	> 10 µM (inactive)
COCC(=O)N1[C@H](CO)[C@@H]2c3ccccc3N(C)C[C@@H]21	> 10 µM (inactive)
O=C(C1CCCCC1)N1[C@H](CO)[C@@H]2c3ccccc3N(S(=O)(=O)c3ccccc3)C[C@@H]21	> 10 µM (inactive)
C[C@@H]1CN([C@H](C)CO)C(=O)CCCn2nncc2CO[C@H]1CN(C)S(=O)(=O)c1ccc(Oc2ccccc2)nc1	> 10 µM (inactive)
CN1C[C@@H]2[C@H](c3ccccc31)[C@@H](CO)N2S(=O)(=O)c1ccccc1	> 10 µM (inactive)
CC(C)N(C[C@H]1N[C@H](CO)[C@H]1c1ccccc1)S(=O)(=O)c1ccccc1	> 10 µM (inactive)
C[C@H]1CN([C@@H](C)CO)C(=O)CCCn2nncc2CO[C@@H]1CN(C)C(=O)Nc1ccc2c(c1)OCCO2	> 10 µM (inactive)
COCC(=O)N1[C@H](CO)[C@H]2c3ccccc3N(C)C[C@H]21	> 10 µM (inactive)
O=C(Cc1ccccn1)N1[C@@H](CO)[C@@H]2c3ccccc3NC[C@@H]21	> 10 µM (inactive)
CCNC[C@@H]1[C@@H](c2ccc(-c3ccc(F)cc3)cc2)[C@@H](CO)N1C(=O)C1CC1	> 10 µM (inactive)
CCCNC(=O)N(C)C[C@@H]1[C@@H](c2ccccc2)[C@H](CO)N1C(=O)c1ccccc1	> 10 µM (inactive)
CCC(=O)N1C[C@H]2[C@@H](c3ccccc31)[C@H](CO)N2C(=O)CC1CC1	> 10 µM (inactive)
C[C@@H]1CN([C@@H](C)CO)C(=O)CCCn2nncc2CO[C@H]1CN(C)C(=O)c1ccc(N2CCN(C)CC2)cc1	> 10 µM (inactive)
C[C@@H]1CN([C@@H](C)CO)C(=O)CCCn2cc(nn2)CO[C@H]1CN(C)C(=O)Nc1cccc2ccccc12	> 10 µM (inactive)
COc1ccccc1-c1ccc([C@H]2[C@@H](CO)N[C@@H]2CNC(=O)C2CC2)cc1	> 10 µM (inactive)
O=C(NC[C@H]1N[C@H](CO)[C@@H]1c1ccc(-c2ccccc2)cc1)c1cccc(F)c1	> 10 µM (inactive)
C[C@@H]1CN([C@H](C)CO)C(=O)CCCn2nncc2CO[C@H]1CN(C)C(=O)Oc1cccc2ccccc12	> 10 µM (inactive)

— PubChem BioAssay AID977614 (Broad Institute, 2014)
